# Reference: patent US20090105259A1, “Acyclic 1,4-Diamines and Uses Thereof” (priority 2005, published 2009)
# Columns and labels:
# TRPV4 channel receptors [1] = target: T1, TRPV4 channel receptors (Homo sapiens, UniProt Q9HBA0); assay: Ca2+ influx through TRPV4 channel receptors, Fura-2 fluorescence on FlexStation, human articular chondrocytes; format: cell-based; conditions: Fura-2, FlexStation
# T1 construct: obtained using this method in human articular chondrocytes; endogenous in cells; host or cells: human articular chondrocytes
# Source text: (§1) Ca^2+ influx mediated through TRPV4 channel receptors can be measured using articular chondrocytes from such species as, but not limited to, human, rat, canine, rabbit, monkey, and bovine, using standard techniques in the art such as, but not limited to, Fura-2 (Invitrogen/Molecular Probes, Eugene, Oreg.) fluorescence using a FlexStation (manufactured by Molecular Devices, Sunnyvale, Calif.). Table 1 lists biological data for several representative compounds obtained using this method in bovine articular chondrocytes.
# Table 2 lists biological data for several representative compounds obtained using this method in human articular chondrocytes.
# (§2) All exemplary compounds of the present invention were assessed using at least one of the biological assays presented above. Compounds presented in the Examples had EC50 values of about 0.01 μM to 10 μM as measured by Flex Station using bovine and/or human articular chondrocytes.
# TRPV4 channel receptors [2] = target: T2, TRPV4 channel receptors (Bos taurus, UniProt A0A8F4X677); assay: Ca2+ influx through TRPV4 channel receptors, Fura-2 fluorescence on FlexStation, bovine articular chondrocytes; format: cell-based; conditions: Fura-2, FlexStation
# T2 construct: obtained using this method in bovine articular chondrocytes; endogenous in cells; host or cells: bovine articular chondrocytes
# Source text: as §1, §2
# T1 sequence (Q9HBA0 whole entry): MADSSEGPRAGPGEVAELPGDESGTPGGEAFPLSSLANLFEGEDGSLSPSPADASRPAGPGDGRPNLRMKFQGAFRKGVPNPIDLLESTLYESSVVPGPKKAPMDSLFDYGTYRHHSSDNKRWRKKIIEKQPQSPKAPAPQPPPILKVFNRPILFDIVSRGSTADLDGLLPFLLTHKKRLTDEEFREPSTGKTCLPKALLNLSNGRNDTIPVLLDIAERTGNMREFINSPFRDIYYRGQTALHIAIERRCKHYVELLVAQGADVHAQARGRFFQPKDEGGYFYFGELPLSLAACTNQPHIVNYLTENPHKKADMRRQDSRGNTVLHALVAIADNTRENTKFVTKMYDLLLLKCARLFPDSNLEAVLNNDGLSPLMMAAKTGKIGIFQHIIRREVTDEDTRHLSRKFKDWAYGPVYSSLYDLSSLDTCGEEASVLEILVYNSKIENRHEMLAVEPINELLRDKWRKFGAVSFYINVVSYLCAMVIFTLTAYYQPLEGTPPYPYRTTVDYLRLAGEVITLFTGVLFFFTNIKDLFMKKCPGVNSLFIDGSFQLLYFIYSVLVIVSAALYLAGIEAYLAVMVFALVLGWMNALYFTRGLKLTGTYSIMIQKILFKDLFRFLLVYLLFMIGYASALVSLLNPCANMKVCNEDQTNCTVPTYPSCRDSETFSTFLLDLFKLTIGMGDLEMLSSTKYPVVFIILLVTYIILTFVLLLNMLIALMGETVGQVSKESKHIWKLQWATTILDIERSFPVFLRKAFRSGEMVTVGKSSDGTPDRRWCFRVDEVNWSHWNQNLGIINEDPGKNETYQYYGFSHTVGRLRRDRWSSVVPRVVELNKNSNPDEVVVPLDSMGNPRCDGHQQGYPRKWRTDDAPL
# T2 sequence (A0A8F4X677 1-871): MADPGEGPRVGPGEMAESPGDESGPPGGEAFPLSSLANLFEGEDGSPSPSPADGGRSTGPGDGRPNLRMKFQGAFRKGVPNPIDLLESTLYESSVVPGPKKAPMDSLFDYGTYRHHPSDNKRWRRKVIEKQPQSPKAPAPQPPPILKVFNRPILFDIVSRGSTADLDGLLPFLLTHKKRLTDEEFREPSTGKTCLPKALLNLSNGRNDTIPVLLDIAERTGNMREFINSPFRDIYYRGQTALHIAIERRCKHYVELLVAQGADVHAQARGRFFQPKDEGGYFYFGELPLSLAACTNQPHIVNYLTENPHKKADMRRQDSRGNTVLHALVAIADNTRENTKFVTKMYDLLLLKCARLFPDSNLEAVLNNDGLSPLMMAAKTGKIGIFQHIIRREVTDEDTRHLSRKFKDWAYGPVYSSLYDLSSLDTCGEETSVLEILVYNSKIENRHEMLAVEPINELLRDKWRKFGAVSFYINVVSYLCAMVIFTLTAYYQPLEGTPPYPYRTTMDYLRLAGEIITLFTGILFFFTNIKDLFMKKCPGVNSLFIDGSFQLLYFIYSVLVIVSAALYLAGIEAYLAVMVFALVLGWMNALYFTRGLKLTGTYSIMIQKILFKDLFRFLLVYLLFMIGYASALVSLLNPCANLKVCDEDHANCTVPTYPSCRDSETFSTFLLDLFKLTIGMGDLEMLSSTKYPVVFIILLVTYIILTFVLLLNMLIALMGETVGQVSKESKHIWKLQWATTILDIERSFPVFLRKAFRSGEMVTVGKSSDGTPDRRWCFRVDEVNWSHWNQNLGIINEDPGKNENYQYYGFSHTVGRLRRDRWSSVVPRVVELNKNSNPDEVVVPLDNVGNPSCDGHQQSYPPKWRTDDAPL
Compound,EC50 (TRPV4 channel receptors [1]) [nM],EC50 (TRPV4 channel receptors [2]) [nM]
"CC(C)C[C@H](NC(=O)c1nc2ccccc2s1)C(=O)NCCCCNS(=O)(=O)c1ccc(F)cc1Cl [Example 50, N-((1S)-1-{[(4-{[(2-Chloro-4-fluorophenyl)sulfonyl]amino}butyl)amino]carbonyl}-3-methylbutyl)-1,3-benzothiazole-2-carboxamide]",1000 to 10000,–
"Cc1c(C(=O)N[C@@H](CC(C)C)C(=O)NCCCCNS(=O)(=O)c2ccc(Cl)cc2Cl)oc2cccnc12 [Example 6, N-((1S)-1-{[(4-{[(2,4-Dichlorophenyl)sulfonyl]amino}butyl)amino]carbonyl}-3-methylbutyl)-3-methylfuro[3,2-b]pyridine-2-carboxamide]",100 to 1000,–
"CC(C)C[C@H](NC(=O)c1cc2ccccc2s1)C(=O)NCCCCNS(=O)(=O)c1ccc(Br)cc1Cl [Example 3, N-((1S)-1-{[(4-{[(4-Bromo-2-chlorophenyl)sulfonyl]amino}butyl)amino]carbonyl}-3-methylbutyl)-1-benzothiophene-2-carboxamide]",30 to 90,30 to 60
"CC(C)C[C@H](NC(=O)c1cc2ccccc2s1)C(=O)NCCCCNS(=O)(=O)c1ccc(F)cc1Cl [Example 5, N-((1S)-1-{[(4-{[(2-Chloro-4-fluorophenyl)sulfonyl]amino}butyl)amino]carbonyl}-3-methylbutyl)-1-benzothiophene-2-carboxamide]",–,70 to 100
